System: human FXN
Test: FXN mRNA expression by qRT-PCR in GM15850 cells after 48 hr compound treatment
Type: cell-based
Settings: Homo sapiens; GM15850 cells, 48 hr incubation, hFXN normalized to hGAPDH; read-out: EC50 WT (nM, 48 hr)
Description: Cell culture: Cells were cultured in RPMI1640 medium+15% FBS. Cells were maintained at a density between 2e5/mL and 1e6/mL. Cells were centrifuged, resuspended in fresh medium, counted and plated at 150,000 cells per well in 100 uL in a non-coated, flat bottom tissue culture plate.
Compound treatment: 10 mM stock solution of FA GeneTAC was diluted 1:10 in DMSO followed by a 1:100 dilution in growth medium. […] Compound was then diluted at a 1:3 ratio into growth medium containing 0.01% DMSO. 5-point, 3-fold dose response curve was generated. 11 μL of 10× compound was added to wells containing 100 μL cell suspension of GM15850. 11 μL growth medium containing 0.01% DMSO was added to all wells not treated with FA GeneTAC. Cells were allowed to incubate for 48 hrs prior to cell lysis using guanidine isothiocyanate solution.
RNA isolation: Total RNA was isolated and purified in 384-well column filter plates using chaotropic salt.
qRT-PCR: qRT-PCR reactions were assembled using AgPath-ID reagents (Thermo Fisher) using 6 uL mastermix and 4 μL RNA. qRT-PCR TaqMan primer probe sets against human FXN (Assay ID Hs01075496_m1) and human GAPDH (Assay ID Hs00266705_g1) were used to measure the intended targets. qRT-PCR was run on the ThermoFisher QuantStudio 6 PRO instrument using the manufacturer's recommended cycling conditions.
Data analysis: qPCR data was analyzed using Thermo Fisher Design and Analysis software. Data was exported to Excel and hFXN expression was normalized to hGAPDH expression.

Question: For `Cc1sc2c(c1C)C(c1ccc(Cl)cc1)=N[C@@H](CC(=O)Nc1ccc(OCCOCCOCCOCCOCCOCCC(=O)N(C)CCCN(C)CCCNC(=O)CCNC(=O)c3nc(NC(=O)CCNC(=O)c4cc(NC(=O)c5nc(NC(=O)CCNC(=O)c6cc(NC(=O)c7nccn7C)cn6C)cn5C)cn4C)cn3C)cc1)c1nnc(C)n1-2` [Compound 53], which EC50 is on record?
Answer: 100 to 500 nM

Question: For `Cc1cc(-c2nc3cnc(C4CCN(CCOCCOCCOCCOCCOCCC(=O)NCCCN(C)CCCNC(=O)CCNC(=O)c5nc(NC(=O)CCNC(=O)c6cc(NC(=O)c7nc(NC(=O)CCNC(=O)c8cc(NC(=O)c9nccn9C)cn8C)cn7C)cn6C)cn5C)CC4)cc3n2[C@@H](C)c2ccccc2)nn(C)c1=O` [Compound 9], which EC50 is on record?
Answer: 100 to 500 nM

Question: For `COC[C@@H](C)n1c(C2CCN(C(=O)COCCOCCOCCOCCOCCOCCOCCOCCNC(=O)CCNC(=O)c3nc(NC(=O)CCNC(=O)c4cc(NC(=O)c5nc(NC(=O)CCNC(=O)c6cc(NC(=O)c7nccn7C)cn6C)cn5C)cn4C)cn3C)CC2)nc2cnc3cc(-c4c(C)noc4C)c(OC)cc3c21` [Compound 44], which EC50 is on record?
Answer: 100 to 500 nM

Question: Which EC50 does the source give for `Cc1sc2c(c1C)C(c1ccc(Cl)cc1)=N[C@@H](CC(=O)Nc1ccc(OCCOCCOCCOCCOCCOCCOCCOCCNC(=O)CCNC(=O)c3nc(NC(=O)CCNC(=O)c4cc(NC(=O)c5nc(NC(=O)CCNC(=O)c6cc(NC(=O)c7nccn7C)cn6C)cn5C)cn4C)cn3C)cc1)c1nnc(C)n1-2` [Compound 23] here?
Answer: 100 to 500 nM

Question: Which EC50 does the source give for `Cc1sc2c(c1C)C(c1ccc(Cl)cc1)=N[C@@H](CC(=O)Nc1ccc(OCCOCCOCCOCCOCCOCCC(=O)N(C)CCCN(C)CCCN(C)C(=O)CCNC(=O)c3nc(NC(=O)CCNC(=O)c4cc(NC(=O)c5nc(NC(=O)CCNC(=O)c6cc(NC(=O)c7nccn7C)cn6C)cn5C)cn4C)cn3C)cc1)c1nnc(C)n1-2` [Compound 54] here?
Answer: 100 to 500 nM

Question: With `CC(=O)N1c2ccc(-c3ccc(C(=O)NCCOCCOCCOCCOCCOCCOCCOCCOCCNC(=O)c4nc(NC(=O)CCNC(=O)c5cc(NC(=O)c6nc(NC(=O)CCNC(=O)c7cc(NC(=O)c8nc(NC(=O)CCNC(=N)N)cn8C)cn7C)cn6C)cn5C)cn4C)cc3)cc2[C@H](Nc2ccc(Cl)cc2)C[C@@H]1C` [Compound 86, N-[5-([2-[(2-[[26-([4-[(2S,4R)-1-acetyl-4-[(4-chlorophenyl)amino]-2-methyl-3,4-dihydro-2H-quinolin-6-yl]phenyl]formamido)-3,6,9,12,15,18,21,24-octaoxahexacosan-1-yl]carbamoyl]-1-methylimidazol-4-yl)carbamoyl]ethyl]carbamoyl)-1-methylpyrrol-3-yl]-4-[3-([4-[4-(3-carbamimidamidopropanamido)-1-methylimidazole-2-amido]-1-methylpyrrol-2-yl]formamido)propanamido]-1-methylimidazole-2-carboxamide] as the compound, how does the EC50 read?
Answer: > 500 nM

Question: How did the EC50 turn out when `CC(=O)N1c2ccc(C3=CCN(C(=O)COCCOCCOCCOCCOCCOCCOCCOCCNC(=O)CCNC(=O)c4nc(NC(=O)CCNC(=O)c5cc(NC(=O)c6nc(NC(=O)CCNC(=O)c7cc(NC(=O)c8nccn8C)cn7C)cn6C)cn5C)cn4C)CC3)cc2N(Cc2ccccc2CO)C[C@@H]1C1CC1` [Compound 46] was run?
Answer: 100 to 500 nM

Question: With `Cc1sc2c(c1C)C(c1ccc(Cl)cc1)=N[C@@H](CC(=O)NC1CCN(CCOCCOCCOCCOCCOCCC(=O)NCCCN(CCCNC(=O)CCNC(=O)c3nc(NC(=O)CCNC(=O)c4cc(NC(=O)c5nc(NC(=O)CCNC(=O)c6cc(NC(=O)c7nccn7C)cn6C)cn5C)cn4C)cn3C)CC(F)(F)F)CC1)c1nnc(C)n1-2` [Compound 101] as the compound, how does the EC50 read?
Answer: 100 to 500 nM

Question: `Cc1noc(C)c1-c1cnc2c(-c3ccc(C(=O)NCCOCCOCCOCCOCCOCCOCCOCCOCCNC(=O)CCNC(=O)c4nc(NC(=O)CCNC(=O)c5cc(NC(=O)c6nc(NC(=O)CCNC(=O)c7cc(NC(=O)c8nccn8C)cn7C)cn6C)cn5C)cn4C)cc3)cn([C@@H](C)c3ccccn3)c2c1` [Compound 42] was tested. Which EC50 did it give?
Answer: < 100 nM

Question: For `Cc1sc2c(c1C)C(c1ccc(Cl)cc1)=N[C@@H](CC(=O)Nc1ccc(OCCOCCOCCOCCOCCOCCOCCOCC(=O)NCCNC(=O)CCNC(=O)c3nc(NC(=O)CCNC(=O)c4cc(NC(=O)c5nc(NC(=O)CCNC(=O)c6cc(NC(=O)c7nccn7C)cn6C)cn5C)cn4C)cn3C)cc1)c1nnc(C)n1-2` [Compound 17], which EC50 is on record?
Answer: < 100 nM

Question: `Cc1sc2c(c1C)C(c1ccc(Cl)cc1)=N[C@@H](CC(=O)Nc1ccc(OCCOCCOCCOCCOCCOCCOCCOCCOCCNC(=O)CCNC(=O)c3cc(NC(=O)c4nc(NC(=O)CCNC(=O)c5cc(NC(=O)c6nc(NC(=O)CCNC(=O)c7cc(NC(=O)c8nccn8C)cn7C)cn6C)cn5C)cn4C)cn3C)cc1)c1nnc(C)n1-2` [Compound 33] was tested. Which EC50 did it give?
Answer: 100 to 500 nM

Question: Which EC50 does the source give for `Cc1sc2c(c1C)C(c1ccc(Cl)cc1)=N[C@@H](CC(=O)Nc1ccc(OCCOCCOCCOCCOCCOCCOCCOCCOCCOCCNC(=O)CCNC(=O)c3nc(NC(=O)CCNC(=O)c4cc(NC(=O)c5nc(NC(=O)CCNC(=O)c6cc(NC(=O)c7nccn7C)cn6C)cn5C)cn4C)cn3C)cc1)c1nnc(C)n1-2` [Compound 24] here?
Answer: < 100 nM

Question: How did the EC50 turn out when `CC(=O)N1c2ccc(C3=CCN(C(=O)COCCOCCOCCOCCOCCOCCOCCNC(=O)CCNC(=O)c4nc(NC(=O)CCNC(=O)c5cc(NC(=O)c6nc(NC(=O)CCNC(=O)c7cc(NC(=O)c8nccn8C)cn7C)cn6C)cn5C)cn4C)CC3)cc2N(Cc2ccccc2CO)C[C@@H]1C1CC1` [Compound 45] was run?
Answer: 100 to 500 nM

Question: Which EC50 does the source give for `CC(=O)N1c2ccc(-c3ccc(C(=O)NCCOCCOCCOCCOCCOCCOCCOCCOCCNC(=O)c4nc(NC(=O)CCNC(=O)c5cc(NC(=O)c6nc(NC(=O)CCNC(=O)c7cc(NC(=O)c8nc(NC(=O)CCNC(=O)COCCOCCOCCN9CCN(CC%10CCNCC%10)CC9)cn8C)cn7C)cn6C)cn5C)cn4C)cc3)cc2[C@H](Nc2ccc(Cl)cc2)C[C@@H]1C` [Compound 88] here?
Answer: > 500 nM

Question: With `Cc1sc2c(c1C)C(c1ccc(Cl)cc1)=N[C@@H](CC(=O)Nc1ccc(OCCOCCOCCOCCOCCOCCC(=O)NCCCN(C)CCCNC(=O)CCNC(=O)c3nc(NC(=O)CCNC(=O)c4cc(NC(=O)c5nc(NC(=O)CCNC(=O)c6cc(NC(=O)c7nccn7C)cn6C)cn5C)cn4C)cn3C)cc1)c1nnc(C)n1-2` [Compound 3] as the compound, how does the EC50 read?
Answer: 100 to 500 nM

Question: How did the EC50 turn out when `Cc1sc2c(c1C)C(c1ccc(Cl)cc1)=N[C@@H](CC(=O)Nc1ccc(OCCOCCOCCOCCOCCOCCOCCOCCOCCNC(=O)CCNC(=O)c3nc(NC(=O)CCNC(=O)c4cc(NC(=O)c5nc(NC(=O)CCNC(=O)c6cc(NC(=O)c7nccn7C)cn6C)cn5C)cn4C)cn3C)nc1)c1nnc(C)n1-2` [Compound 102] was run?
Answer: < 100 nM

Question: How did the EC50 turn out when `Cc1sc2c(c1C)C(c1ccc(Cl)cc1)=N[C@@H](CC(=O)Nc1cccc(OCCOCCOCCOCCOCCOCCC(=O)NCCCN(C)CCCNC(=O)CCNC(=O)c3nc(NC(=O)CCNC(=O)c4cc(NC(=O)c5nc(NC(=O)CCNC(=O)c6cc(NC(=O)c7nccn7C)cn6C)cn5C)cn4C)cn3C)c1)c1nnc(C)n1-2` [Compound 62] was run?
Answer: < 100 nM

Question: Which EC50 does the source give for `Cc1noc(C)c1-c1cnc2c(-c3ccc(C(=O)NCCOCCOCCOCCOCCOCCOCCOCCNC(=O)CCNC(=O)c4nc(NC(=O)CCNC(=O)c5cc(NC(=O)c6nc(NC(=O)CCNC(=O)c7cc(NC(=O)c8nccn8C)cn7C)cn6C)cn5C)cn4C)cc3)cn([C@@H](C)c3ccccn3)c2c1` [Compound 41] here?
Answer: 100 to 500 nM

Question: `COC[C@@H](C)n1c(C2CCN(C(=O)COCCOCCOCCOCCOCCC(=O)NCCCN(C)CCCNC(=O)CCNC(=O)c3nc(NC(=O)CCNC(=O)c4cc(NC(=O)c5nc(NC(=O)CCNC(=O)c6cc(NC(=O)c7nccn7C)cn6C)cn5C)cn4C)cn3C)CC2)nc2cnc3cc(-c4c(C)noc4C)c(OC)cc3c21` [Compound 20] was tested. Which EC50 did it give?
Answer: 100 to 500 nM

Source: patent publication US20240050576A1, “METHODS AND COMPOUNDS FOR THE TREATMENT OF GENETIC DISEASE” (Design Therapeutics, Inc., priority 2020, published 2024)
